Test results: US12029715B2, “Precursor compounds for providing retinoids of the vitamin A5 pathway and uses thereof” (UNIVERSITY OF DEBRECEN, priority 2015, dated 2024)

Tested on: hRARα, β and γ LBDs
Assay: ESI-MS in non-denaturing conditions, binding to RAR LBD isotypes
Set-up: species or system human
Conditions: 5-fold molar excess of ligand
Description: cDNAs encoding hRXRα LBD (223-462), hRARα LBD (153-421), hRARBβ LBD (169-414) and hRARγ LBD (178-423) were cloned into pET28b vector to generate N-terminal Histag fusion proteins. Purification was carried out as previously described [Lippert W P et al. 2009, Osz J, et al. 2012], including a metal affinity chromatography and a gel filtration. For details of sample preparation and ESI-MS analyses see below.
cDNAs encoding hRXRαLBD (223-462), hRARαLBD (153-421), hRARβLBD (169-414) and hRARγ LBD (178-423) were cloned into pET28b vector to generate N-terminal His-tag fusion proteins. Purification was carried out as previously described [Lippert W P et al. 2009, Osz J, et al. 2012], including a metal affinity chromatography and a gel filtration. Prior to ESI-MS analysis, samples were desalted on Zeba Spin desalting columns (Pierce) in 150 mM ammonium acetate (pH 8.0). ESI-MS measurements were performed on an electrospray time-of-flight mass spectrometer (MicrOTOF, Bruker Daltonics). Purity and homogeneity of the proteins were verified by mass spectrometry in denaturing conditions (samples were diluted at 2 pmol/μl in a 1:1 water-acetonitrile mixture (v/v) acidified with 1% formic acid). The mass measurements of the noncovalent complexes were performed in ammonium acetate (200 mM; pH 8.0). […]

binding to RAR LBD isotypes in ESI-MS: bind to all RAR LBD isotypes
Structure (SMILES): CC1=C(/C=C/C(C)=C\C=C\[C@H](C)CC(=O)O)C(C)(C)CCC1 [(R)-9CDHRA, (9Z,13R)-13,14-Dihydroretinoic Acid]
